Measurements: patent publication US20050176649A1, “Iap binding peptides and assays for identifying compounds that bind iap” (priority 2001, published 2005)
Non-standard residues stand in square brackets, D forms with d. Residues, ends and D or L forms follow the SMILES beside them. ξ: configuration not given here. NMeF = CN[C@@H](Cc1ccccc1)C(=O)O; NMeV = CN[C@H](C(=O)O)C(C)C; ξAbu = CCC(N)C(=O)O

Key:
[1] = target: T1, BIR3 domain of XIAP (recombinant XIAP-BIR3, residues 238-358) (Homo sapiens, UniProt P98170); assay: Fluorescence-based competition assay of tetrapeptide libraries (Example 1); format: binding, mammalian
T1 construct: Recombinant XIAP-BIR3 (residues 238-358); GST (N, cleaved yes); made in house; host or cells: E. coli
Excerpt: Expression and Purification of BIR3. […] The soluble fraction of the GST-BIR3 in the E. coli lysate was purified over a glutathione sepharose column, and further purified by anion exchange chromatography (Mono-Q, Amersham Biosciences). The fusion protein was cleaved by thrombin, and the GST portion was removed by the glutathione sepharose column. The BIR3 protein was further purified over a gel filtration column (Superdex 30, Amersham Biosciences).
Fluorescence Experiments. Luminescence spectra were recorded using a Photon Technologies, Inc. fluorometer with a Xe arc lamp and a PMT detector. […] The buffer used in all of the fluorescence experiments was 50 mM potassium phosphate, 100 mM NaCl, 2 mM 1,4-dithio-DL-threitol (DTT), pH 7.
Assay of Tetrapeptide Libraries. The samples were prepared in a 96 well plate lined with glass tubes, to prevent adsorption of the dye to plastic. The plate was stored on ice in the dark between measurements. […] 390 μL of this stock solution were added to 50 wells of the 96 well plate. 50 μL of the test tetrapeptide solutions were added and mixed immediately prior to taking the emission spectra. The final solutions were 5 μM in both badan and BIR3, and approximately 20-30 μM in the tetrapeptide solutions. […] 50 μL of water was added to these wells, again as controls, to determine the intensity of the unbound dye.
The binding of various tetrapeptide mimics to the BIR3 domain of XIAP was determined using a fluorescence-based competition assay. The assay is based on an environment-sensitive fluorogenic dye molecule, badan. Badan is a dye whose sensitivity to environmental changes has previously been used to probe protein binding interactions. […] As the dye is displaced from the binding pocket by the test molecule, the emission shifts back towards the aquated spectrum.

[2] = target: T2, BIR3 domain of XIAP (Homo sapiens, UniProt P98170); assay: Fluorescence displacement assay: AVPC-badan displaced from BIR3 by test tetrapeptide (typical assay, Tables 1 and 2); format: binding, mammalian; details: for Intensity (470 nm): emission intensity of AVPC-badan with BIR3 and test tetrapeptide, excitation 387 nm, lower = more dye displaced; for Fraction free: fraction of AVPC-badan free (displaced from BIR3), from intensity at 470 nm; for Krelative: relative equilibrium constant for displacement of AVP-dye, larger = greater affinity for BIR3; for K: binding (equilibrium) constant for displacement of AVP-dye, position-4 library, 5 μM dye and protein, larger = greater affinity
T2 construct: Recombinant XIAP-BIR3 (residues 238-358); GST (N, cleaved yes); made in house; host or cells: E. coli
Excerpt: The ability to quickly assay small molecules for their effectiveness in disrupting protein-protein interactions is critical to the development of viable drug candidates. One aspect of the present invention comprises an assay to test the binding affinity of a library of tetrapeptide molecules for the BIR3 domain of an inhibitor of apoptosis protein (LAP), particularly the mammalian XIAP. The assay is based on a detectable label, preferably a fluorogenic dye molecule. In preferred embodiments, the fluorophore is attached to a tripeptide, AVP, whose sequence matches the N-terminal three residues of Smac. The general structure of this molecule, therefore, is AVP[X], wherein X is the fluorophore. The molecule is referred to herein as an “AVP-dye”. The AVP-dye packs into the groove of the BIR3, causing a large shift in emission maximum and intensity when the environment of the dye changes from water to the hydrophobic pocket of the protein. If a molecule (e.g. the native Smac protein or a tetrapeptide mimic) displaces the dye, then emission will shift back to the spectrum observed in water. Since the emission intensity is related to the binding of the tetrapeptide, the intensity can be used to estimate the equilibrium constant, K, for displacement of the AVP-dye by the tetrapeptide. The larger the equilibrium constant, the greater affinity the tetrapeptide has for the BIR3.
The aforementioned AVP-dye is used in an assay of test compounds that may, like the Smac tetrapeptide AVPI, bind to the BIR3 domain of XIAP, thereby relieving XIAP-mediated suppression of apoptosis. This is a high-throughput, cell-free assay, that is assembled as follows. A protein comprising the BIR3 domain of an IAP is placed in an assay medium comprising a suitable buffer, as described above. Preferably, this is a recombinant protein comprising the BIR3 domain, but a full IAP protein also may be used. An aliquot of the AVP-dye is added to the reaction mixture, in the presence of the test compound. Controls comprise the BIR3 and the dye in the absence of the test compound and, optionally, BIR3 and the dye in the presence of the naturally occurring tetrapeptide, AVPI. […] Alternatively, a emission spectrum is measured at the selected excitation wavelength. In one type of measurement, the test compound is added and an emission spectrum is measured by scanning from, e.g., 460-480 nm. In another type of measurement, the emission intensity at a particular wavelength, e.g., 470 nm, is measured. […] Thus, the binding affinity of the test compound may be calculated as a function of its ability to displace the dye from the BIR3 domain, according to the following calculation: [formula]
Stock solution of badan, BIR3, and buffer were mixed: 2.5 ml of badan, 1.75 ml BIR3, and 15.25 ml of buffer were mixed in a glass vial which had been chilled to 4° C. Added 390 μL of the stock solution to 50 wells in the pre-chilled 96 well plate (wells A1-E2).
Stock solution of badan and buffer were mixed: 150 μL badan and 1020 μL of buffer were mixed in a small glass vial (also chilled) and added to 3 wells on the plate in 390 μL aliquots (F1-F3).
The 96 well plate was stored over ice in an insulated bucket while the emission spectra of the samples were taken. Fifty μL of the appropriate test solution (or water, for the control experiments) was added with a micropipet, the solution mixed with a Pasteur pipet before adding the sample to the fluorescence cuvette. While one sample was being scanned, the cuvette from the previous scan was washed with EtOH and then next sample was prepared.

T1 sequence (P98170 238-358): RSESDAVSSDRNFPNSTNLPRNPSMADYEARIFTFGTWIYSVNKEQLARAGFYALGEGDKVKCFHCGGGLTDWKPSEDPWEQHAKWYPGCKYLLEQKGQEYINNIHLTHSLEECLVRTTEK
T2 sequence (P98170 238-358): as above

Compound | Kd [1] [µM] | other results
CC(C)[C@@H](C(=O)N1CCC[C@H]1C(=O)N(C)[C@@H](Cc1ccccc1)C(N)=O)N(C)C(=O)[C@H](C)N [A(N-Me)VP(N-Me)F] (H-A[NMeV]P[NMeF]-NH2; N-terminus and C-terminus assumed) | 91 | 
CC(C)[C@@H](C(=O)N1CCC[C@H]1C(=O)N[C@@H](Cc1ccccc1)C(N)=O)N(C)C(=O)[C@H](C)N [A(N-Me)VPF] | 83 | 
CC[C@H](C)[C@H](NC(=O)[C@@H]1CCCN1C(=O)[C@H](C(C)C)N(C)C(=O)[C@H](C)N)C(N)=O [A(N-Me)VPI] | 257 | 
CC[C@H](C)[C@H](NC(=O)[C@@H]1CCCN1C(=O)[C@H](C)NC(=O)[C@H](C)N)C(N)=O [AAPI] (H-AAPI-NH2; N-terminus and C-terminus assumed) | 2.8 | 
CC[C@H](C)[C@H](NC(=O)[C@@H]1CCCN1C(=O)[C@H](CC(=O)O)NC(=O)[C@H](C)N)C(N)=O [ADPI] (H-ADPI-NH2; N-terminus and C-terminus assumed) | 17 | 
CC[C@H](C)[C@H](NC(=O)[C@@H]1CCCN1C(=O)[C@H](CCC(=O)O)NC(=O)[C@H](C)N)C(N)=O [AEPI] (H-AEPI-NH2; N-terminus and C-terminus assumed) | 2.7 | 
CC[C@H](C)[C@H](NC(=O)[C@@H]1CCCN1C(=O)CNC(=O)[C@H](C)N)C(N)=O [AGPI] (H-AGPI-NH2; N-terminus and C-terminus assumed) | 46 | 
CC[C@H](C)[C@H](NC(=O)[C@@H]1CCCN1C(=O)[C@H](Cc1c[nH]cn1)NC(=O)[C@H](C)N)C(N)=O [AHPI] (H-AHPI-NH2; N-terminus and C-terminus assumed) | 0.33 | Intensity (470 nm) [2]: 41450; Fraction free [2]: 0.8543
CC[C@H](C)[C@H](NC(=O)[C@@H]1CCCN1C(=O)[C@@H](NC(=O)[C@H](C)N)[C@@H](C)CC)C(N)=O [AIPI] (H-AIPI-NH2; N-terminus and C-terminus assumed) |  | Intensity (470 nm) [2]: 44902; Fraction free [2]: 0.8375; Krelative [2]: 2.6613
CC[C@H](C)[C@H](NC(=O)[C@@H]1CCCN1C(=O)[C@H](CC(C)C)NC(=O)[C@H](C)N)C(N)=O [ALPI] (H-ALPI-NH2; N-terminus and C-terminus assumed) |  | Intensity (470 nm) [2]: 38650; Fraction free [2]: 0.8679; Krelative [2]: 3.5812
CC[C@H](C)[C@H](NC(=O)[C@@H]1CCCN1C(=O)[C@H](CC(N)=O)NC(=O)[C@H](C)N)C(N)=O [ANPI] (H-ANPI-NH2; N-terminus and C-terminus assumed) | 1.5 | 
CC[C@H](C)[C@H](NC(=O)[C@@H]1CCCN1C(=O)[C@@H]1CCCN1C(=O)[C@H](C)N)C(N)=O [APPI] (H-APPI-NH2) | > 100 | 
C[C@H](N)C(=O)N[C@@H](CCCNC(=N)N)C(=O)N1CCC[C@H]1C(=O)N(C)[C@@H](Cc1ccccc1)C(N)=O [ARP(N-Me)F] (H-ARP[NMeF]-NH2; N-terminus and C-terminus assumed) | 0.71 | 
CC[C@H](C)[C@@H](C(N)=O)N(C)C(=O)[C@@H]1CCCN1C(=O)[C@H](CCCNC(=N)N)NC(=O)[C@H](C)N [ARP(N-Me)I] | 190 | 
CC[C@H](C)[C@H](NC(=O)[C@@H]1CCCN1C(=O)[C@H](CCCNC(=N)N)NC(=O)[C@H](C)N)C(N)=O [ARPI] | 0.18 | Intensity (470 nm) [2]: 29455; Fraction free [2]: 0.9125
CC[C@H](C)[C@H](NC(=O)[C@@H]1CCCN1C(=O)[C@H](CO)NC(=O)[C@H](C)N)C(N)=O [ASPI] (H-ASPI-NH2; N-terminus and C-terminus assumed) | 1.4 | 
CC[C@H](C)[C@H](NC(=O)[C@@H]1CCCN1C(=O)[C@@H](NC(=O)[C@H](C)N)[C@@H](C)O)C(N)=O [ATPI] (H-ATPI-NH2; N-terminus and C-terminus assumed) | 1.2 | 
CC(C)[C@H](NC(=O)[C@H](C)N)C(=O)N[C@@H](C)C(=O)N[C@@H](Cc1ccccc1)C(N)=O [AVAF] | 0.56 | 
CC(C)[C@H](NC(=O)[C@H](C)N)C(=O)N1CCC[C@H]1C(=O)N(C)[C@@H](Cc1ccccc1)C(N)=O [AVP(N-Me)F] (H-AVP[NMeF]-NH2; N-terminus and C-terminus assumed) | 0.89 | 
CC[C@H](C)[C@@H](C(N)=O)N(C)C(=O)[C@@H]1CCCN1C(=O)[C@@H](NC(=O)[C@H](C)N)C(C)C [AVP(N-Me)I] | 174 | 
CC(C)[C@H](NC(=O)[C@H](C)N)C(=O)N1CCC[C@H]1C(=O)N[C@@H](C)C(N)=O [AVPA] (H-AVPA-NH2; N-terminus and C-terminus assumed) | 14 | K [2]: 0.05518
CC(C)[C@H](NC(=O)[C@H](C)N)C(=O)N1CCC[C@H]1C(=O)N[C@@H](CS)C(N)=O [AVPC, Ala-Val-Pro-Cys-NH2] | 1.4 | K [2]: 0.1034
CC(C)[C@H](NC(=O)[C@H](C)N)C(=O)N1CCC[C@H]1C(=O)N[C@@H](CC(=O)O)C(N)=O [AVPD] (H-AVPD-NH2; N-terminus and C-terminus assumed) | 7.3 | K [2]: 0.1799
CC(C)[C@H](NC(=O)[C@H](C)N)C(=O)N1CCC[C@H]1C(=O)N[C@@H](CCC(=O)O)C(N)=O [AVPE] (H-AVPE-NH2; N-terminus and C-terminus assumed) | 93 | K [2]: 0.03709
CC(C)[C@H](NC(=O)[C@H](C)N)C(=O)N1CCC[C@H]1C(=O)N[C@@H](CC(N)=O)C(N)=O [AVPN] (H-AVPN-NH2) | > 100 | 
CC(C)[C@H](NC(=O)[C@H](C)N)C(=O)N1CCC[C@H]1C(=O)N[C@@H](CCC(N)=O)C(N)=O [AVPQ] (H-AVPQ-NH2) | > 100 | 
CC[C@H](C)[C@H](NC(=O)[C@@H]1CCCN1C(=O)[C@H](Cc1c[nH]c2ccccc12)NC(=O)[C@H](C)N)C(N)=O [AWPI] (H-AWPI-NH2; N-terminus and C-terminus assumed) | 0.99 | 
CCC(N)C(=O)N[C@H](C(=O)N1CCC[C@H]1C(=O)N[C@H](C(N)=O)[C@@H](C)CC)C(C)C (stereo partly shown) [AbuVPI] (H-[ξAbu]VPI-NH2; N-terminus and C-terminus assumed) |  | Intensity (470 nm) [2]: 34770; Fraction free [2]: 0.8867
CC[C@H](C)[C@H](NC(=O)[C@@H]1CCCN1C(=O)[C@@H](NC(=O)CN)C(C)C)C(N)=O [GVPI] (H-GVPI-NH2; N-terminus and C-terminus assumed) | 9 | 
CC[C@H](C)[C@H](NC(=O)[C@@H]1CCCN1C(=O)[C@@H](NC(=O)[C@@H](N)CO)C(C)C)C(N)=O [SVPI] | 27 | 
